Reference: US10160755B2 (Plexxikon Inc., priority 2015, dated 2018)

target: T1, BA/F3-FLT3-ITD + F691L cells (Homo sapiens, UniProt P36888, F691L, cells depend on it, form not given); assay: BA/F3-FLT3-ITD + F691L cell proliferation assay (CellTiter-Glo); assay type: cell-based, murine; conditions: BaF3 FLT3 ITD/F691L cells; read-out: Cell Activity (IC50 μM) BaF3_FLT3_ITD/F691L
T1 sequence (P36888 1-993 F691L): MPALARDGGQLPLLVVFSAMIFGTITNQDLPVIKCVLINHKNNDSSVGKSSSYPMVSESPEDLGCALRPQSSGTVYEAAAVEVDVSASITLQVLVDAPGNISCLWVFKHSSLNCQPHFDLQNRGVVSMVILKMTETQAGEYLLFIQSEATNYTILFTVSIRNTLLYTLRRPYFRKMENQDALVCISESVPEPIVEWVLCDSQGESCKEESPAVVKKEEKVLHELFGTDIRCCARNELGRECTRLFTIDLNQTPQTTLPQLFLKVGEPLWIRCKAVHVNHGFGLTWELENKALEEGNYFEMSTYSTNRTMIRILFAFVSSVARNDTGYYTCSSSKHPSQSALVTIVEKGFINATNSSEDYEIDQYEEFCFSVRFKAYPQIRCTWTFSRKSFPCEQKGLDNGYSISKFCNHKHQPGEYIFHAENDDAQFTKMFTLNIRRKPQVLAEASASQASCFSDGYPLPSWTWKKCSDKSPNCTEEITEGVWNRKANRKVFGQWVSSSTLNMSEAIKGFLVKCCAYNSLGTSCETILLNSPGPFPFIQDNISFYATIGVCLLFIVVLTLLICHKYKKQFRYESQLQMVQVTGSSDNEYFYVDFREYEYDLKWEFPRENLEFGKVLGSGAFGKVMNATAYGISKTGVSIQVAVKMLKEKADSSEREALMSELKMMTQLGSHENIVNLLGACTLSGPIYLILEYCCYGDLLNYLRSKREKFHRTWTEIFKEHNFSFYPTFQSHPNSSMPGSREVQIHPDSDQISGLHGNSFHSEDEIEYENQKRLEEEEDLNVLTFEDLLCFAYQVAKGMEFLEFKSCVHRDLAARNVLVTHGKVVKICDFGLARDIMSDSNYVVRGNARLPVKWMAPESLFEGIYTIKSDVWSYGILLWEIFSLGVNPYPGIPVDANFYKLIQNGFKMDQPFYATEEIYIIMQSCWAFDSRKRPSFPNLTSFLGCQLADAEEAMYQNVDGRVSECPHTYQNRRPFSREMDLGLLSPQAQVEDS
In short: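 Murine BA/F3 cells transfected with full-length FLT3 carrying ITD plus D835Y or F691L, grown without IL-3 so growth depends on FLT3. Seeded at 1×10^4 cells/well and dosed with 8 points, 10 to 0.0046 μM, 0.2% DMSO, for three days at 37 °C. IC50 from CellTiter-Glo luminescence (ATP content).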

| Compound | GI50 [µM] |
| --- | --- |
| N#Cc1cccc(NC(=O)c2cnc3[nH]cc(-c4ccc5ncn(C6CCCNC6)c5c4)c3c2)c1 (stereo not shown) [P-219, N-(3-cyanophenyl)-3-(1-(piperidin-3-yl)-1H-benzo[d]imidazol-6-yl)-1H-pyrrolo[2,3-b]pyridine-5-carboxamide] | 1 to 10 |
| CC(C)(C)n1cnc2ccc(-c3c[nH]c4ncc(-c5cnc(N6CCOCC6)nc5)cc34)cc21 [P-266, 4-[5-[3-(3-tert-butylbenzimidazol-5-yl)-1H-pyrrolo[2,3-b]pyridin-5-yl]pyrimidin-2-yl]morpholine] | 0.0001 to 1 |
| CC(C)(C)n1cnc2ccc(-c3c[nH]c4ncc(-c5cccc(NS(C)(=O)=O)c5)nc34)cc21 [P-097, N-[3-[7-(3-tert-butylbenzimidazol-5-yl)-5H-pyrrolo[2,3-b]pyrazin-2-yl]phenyl]methanesulfonamide] | 0.0001 to 1 |
| N#Cc1cccc(-c2cnc3[nH]cc(-c4ccc5ncn(-c6ccc(F)c(Cl)c6)c5c4)c3c2)c1 [P-210, 3-[3-[3-(3-chloro-4-fluoro-phenyl)benzimidazol-5-yl]-1H-pyrrolo[2,3-b]pyridin-5-yl]benzonitrile] | 0.0001 to 1 |
| C#Cc1cnc2[nH]cc(-c3ccc4ncn(C5CCCNC5)c4c3)c2n1 (stereo not shown) [P-270, 2-ethynyl-7-[3-(3-piperidyl)benzimidazol-5-yl]-5H-pyrrolo[2,3-b]pyrazine] | 0.0001 to 1 |
| CC(C)(C)n1cnc2ccc(-c3c[nH]c4ncc(-c5cccc(N6CCCS6(=O)=O)c5)nc34)cc21 [P-231, 2-[3-[7-(3-tert-butylbenzimidazol-5-yl)-5H-pyrrolo[2,3-b]pyrazin-2-yl]phenyl]-1,2-thiazolidine 1,1-dioxide] | 0.0001 to 1 |
| CC(C)(C)n1cnc2ccc(-c3c[nH]c4ncc(-c5ccc(F)c(C#N)c5)nc34)cc21 [P-230, 5-[7-(3-tert-butylbenzimidazol-5-yl)-5H-pyrrolo[2,3-b]pyrazin-2-yl]-2-fluoro-benzonitrile] | 0.0001 to 1 |
| CN(c1cccc(-c2cnc3[nH]cc(-c4ccc5ncn(C)c5c4)c3n2)c1)S(C)(=O)=O [P-150, N-methyl-N-[3-[7-(3-methylbenzimidazol-5-yl)-5H-pyrrolo[2,3-b]pyrazin-2-yl]phenyl]methanesulfonamide] | 0.0001 to 1 |
| COc1cc(-c2cnc3[nH]cc(-c4ccc5ncn(C6CCCN(C(C)=O)C6)c5c4)c3n2)ccn1 (stereo not shown) [P-260, 1-[3-[6-[2-(2-methoxy-4-pyridyl)-5H-pyrrolo[2,3-b]pyrazin-7-yl]benzimidazol-1-yl]-1-piperidyl]ethanone] | 0.0001 to 1 |
| c1cc(-c2cnc3[nH]cc(-c4ccc5ncn(C6CCCNC6)c5c4)c3c2)cc(N2CCOCC2)n1 (stereo not shown) [P-223, 4-[4-[3-[3-(3-piperidyl)benzimidazol-5-yl]-1H-pyrrolo[2,3-b]pyridin-5-yl]-2-pyridyl]morpholine] | 0.0001 to 1 |
| COc1ncc(-c2cnc3[nH]cc(-c4ccc5ncn(C(C)(C)C)c5c4)c3n2)cn1 [P-263, 7-(3-tert-butylbenzimidazol-5-yl)-2-(2-methoxypyrimidin-5-yl)-5H-pyrrolo[2,3-b]pyrazine] | 0.0001 to 1 |
| COc1ncc(-c2cnc3[nH]cc(-c4ccc5ncn(C6CCCNC6)c5c4)c3n2)cn1 (stereo not shown) [P-264, 2-(2-methoxypyrimidin-5-yl)-7-[3-(3-piperidyl)benzimidazol-5-yl]-5H-pyrrolo[2,3-b]pyrazine] | 0.0001 to 1 |
| COc1cc(C(=O)Nc2cnc3[nH]cc(-c4ccc5ncn(C6CCCNC6)c5c4)c3c2)ccn1 (stereo not shown) [P-247, 2-methoxy-N-[3-[3-(3-piperidyl)benzimidazol-5-yl]-1H-pyrrolo[2,3-b]pyridin-5-yl]pyridine-4-carboxamide] | 0.0001 to 1 |
| COc1cnc2[nH]cc(-c3cnc4ncn(Cc5cc(C)on5)c4c3)c2c1 [P-144, 3-[[6-(5-methoxy-1H-pyrrolo[2,3-b]pyridin-3-yl)imidazo[4,5-b]pyridin-1-yl]methyl]-5-methyl-isoxazole] | 0.0001 to 1 |
| CC(C)(C)n1cnc2ccc(-c3c[nH]c4ncc(-c5cnn(C(F)F)c5)nc34)cc21 [P-255, 7-(3-tert-butylbenzimidazol-5-yl)-2-[1-(difluoromethyl)pyrazol-4-yl]-5H-pyrrolo[2,3-b]pyrazine] | 0.0001 to 1 |

Other lines, results leading:

| GI50 [µM] | Compound |
| --- | --- |
| 0.0001 to 1 | CC(C)S(=O)(=O)Nc1cccc(-c2cnc3[nH]cc(-c4ccc5ncn(C6CCCNC6)c5c4)c3c2)c1 (stereo not shown) [P-215, N-[3-[3-[3-(3-piperidyl)benzimidazol-5-yl]-1H-pyrrolo[2,3-b]pyridin-5-yl]phenyl]propane-2-sulfonamide] |
| 0.0001 to 1 | COc1cnc2[nH]cc(-c3ccc4ncn(-c5cccc(F)c5)c4c3)c2c1 [P-128, 1-(3-fluorophenyl)-6-(5-methoxy-1H-pyrrolo[2,3-b]pyridin-3-yl)benzimidazole] |
| 0.0001 to 1 | CC(C)(C)n1cnc2ccc(-c3c[nH]c4ncc(-c5cccc(S(=O)(=O)N6CCCC6)c5)nc34)cc21 [P-229, 7-(3-tert-butylbenzimidazol-5-yl)-2-(3-pyrrolidin-1-ylsulfonylphenyl)-5H-pyrrolo[2,3-b]pyrazine] |
| 0.0001 to 1 | C#Cc1cnc2[nH]cc(-c3ccc4ncn(C(C)(C)C)c4c3)c2n1 [P-259, 7-(3-tert-butylbenzimidazol-5-yl)-2-ethynyl-5H-pyrrolo[2,3-b]pyrazine] |
| 0.0001 to 1 | c1cc(-c2cnc3[nH]cc(-c4ccc5ncn(C6CCCNC6)c5c4)c3n2)cc(N2CCOCC2)n1 (stereo not shown) [P-262, 4-[4-[7-[3-(3-piperidyl)benzimidazol-5-yl]-5H-pyrrolo[2,3-b]pyrazin-2-yl]-2-pyridyl]morpholine] |
| 0.0001 to 1 | O=C(Nc1cccc(F)c1)c1cnc2[nH]cc(-c3ccc4ncn(C5CCCNC5)c4c3)c2c1 (stereo not shown) [P-178, N-(3-fluorophenyl)-3-[3-(3-piperidyl)benzimidazol-5-yl]-1H-pyrrolo[2,3-b]pyridine-5-carboxamide] |
| 0.0001 to 1 | CC(C)(C)n1cnc2ccc(-c3c[nH]c4ncc(C(=O)Nc5cccc(C#N)c5)cc34)cc21 [P-218, 3-(3-tert-butylbenzimidazol-5-yl)-N-(3-cyanophenyl)-1H-pyrrolo[2,3-b]pyridine-5-carboxamide] |
| 0.0001 to 1 | CC(C)(C)n1cnc2ccc(-c3c[nH]c4ncc(-c5cnn(CC(F)(F)F)c5)nc34)cc21 [P-256, 7-(3-tert-butylbenzimidazol-5-yl)-2-[1-(2,2,2-trifluoroethyl)pyrazol-4-yl]-5H-pyrrolo[2,3-b]pyrazine] |
| 0.0001 to 1 | c1cc(N2CCOCC2)ccc1-c1cnc2[nH]cc(-c3ccc4ncn(C5CCCNC5)c4c3)c2n1 (stereo not shown) [P-101, 4-[4-[7-[3-(3-piperidyl)benzimidazol-5-yl]-5H-pyrrolo[2,3-b]pyrazin-2-yl]phenyl]morpholine] |
| 0.0001 to 1 | COc1cc(-c2cnc3[nH]cc(-c4ccc5ncn(C(C)(C)C)c5c4)c3c2)ccn1 [P-106, 1-tert-butyl-6-[5-(2-methoxy-4-pyridyl)-1H-pyrrolo[2,3-b]pyridin-3-yl]benzimidazole] |
| 0.0001 to 1 | COc1cnc2[nH]cc(-c3ccc4ncn(-c5ccc(F)c(C)c5)c4c3)c2c1 [P-129, 1-(4-fluoro-3-methyl-phenyl)-6-(5-methoxy-1H-pyrrolo[2,3-b]pyridin-3-yl)benzimidazole] |
| 0.0001 to 1 | COc1cc(-c2cnc3[nH]cc(-c4ccc5ncn(C(C)C)c5c4)c3n2)ccn1 [P-113, 7-(3-isopropylbenzimidazol-5-yl)-2-(2-methoxy-4-pyridyl)-5H-pyrrolo[2,3-b]pyrazine] |
| 0.0001 to 1 | N#Cc1cccc(C(=O)Nc2cnc3[nH]cc(-c4ccc5ncn(C6CCCNC6)c5c4)c3c2)c1 (stereo not shown) [P-236, 3-cyano-N-[3-[3-(3-piperidyl)benzimidazol-5-yl]-1H-pyrrolo[2,3-b]pyridin-5-yl]benzamide] |
| 0.0001 to 1 | CC(C)(C)n1cnc2ccc(-c3c[nH]c4ncc(NC(=O)c5cccc(C#N)c5)cc34)cc21 [P-235, N-[3-(3-tert-butylbenzimidazol-5-yl)-1H-pyrrolo[2,3-b]pyridin-5-yl]-3-cyano-benzamide] |
| 0.0001 to 1 | COc1cc(-c2cnc3[nH]cc(-c4ccc5ncn(C6CCCN(C)C6)c5c4)c3n2)ccn1 (stereo not shown) [P-271, 2-(2-methoxy-4-pyridyl)-7-[3-(1-methyl-3-piperidyl)benzimidazol-5-yl]-5H-pyrrolo[2,3-b]pyrazine] |
| 0.0001 to 1 | COc1cc(-c2cnc3[nH]cc(-c4ccc5ncn([C@@H]6CCCNC6)c5c4)c3n2)ccn1 [P-254, 2-(2-methoxy-4-pyridyl)-7-[3-[(3R)-3-piperidyl]benzimidazol-5-yl]-5H-pyrrolo[2,3-b]pyrazine] |
